From patent US11938121B2, “Treatment of infections and biofilm formation using a cellulose synthase inhibitor” (Purdue Research Foundation, priority 2020, dated 2024)

Tests used:
GFP-CESA6c^P595S = target: T1, GFP-CESA6c^P595S (Arabidopsis thaliana, UniProt Q94JQ6, P595S); assay: MST assay with GFP-CESA6c^P595S; type: binding
T1 construct: We purified AtCESA6 central cytoplasmic domain carrying missense mutation P595S (CESA6c^P595S); made in house; host or cells: E. coli (inferred from the wild-type CESA6c construct that served as template)
Description: To obtain the central cytosolic domain of AtCESA6 for the MST assay, we inserted the GFP coding sequence into the SacI and PstI restriction enzyme sites of the pRSF-Duet-1 vector (Huang et al., 2020). The GFP coding sequence was amplified from the pUBN-GFP-DEST vector. The sequence encoding the central cytosolic domain of CESA6 (CESA6c) was amplified from Col-0 cDNA and fused with GFP at the C-terminus. CESA6c construct was used as a template for creating CESA6c^P595S construct by site-directed mutagenesis. Protein purification was performed as previously described (Huang et al., 2020).
MST assays were carried out using a Monolith NT.115 (NanoTemper) machine at the Chemical Genomics Facility at Purdue University. […] The ES20-1 was dissolved in DMSO, and the final concentration of DMSO was 5% (vol/vol). MST standard capillaries were used to load the samples into the MST instrument. Triplicate reactions were performed for each test. The MST data were processed using MO. Affinity Analysis Version 2.3 software.

[1] = target: T2, YFP-AtCESA6 cellulose synthase complexes (CSCs) in root epidermal cells (Arabidopsis thaliana, UniProt Q94JQ6); assay: Spinning-disk confocal live-cell imaging of CSC trafficking; type: cell-based; conditions: 6 μM
T2 construct: expressed in transfected cells; host or cells: transgenic Arabidopsis thaliana YFP-AtCESA6 seedlings (total protein extract for DARTS; root epidermal cells for imaging)
Procedure: For SDCM live cell imaging, seedlings were grown vertically for 5 d, and images were taken from the 2nd or 3rd epidermal cell below the first obvious root hair in the root elongation zone. Two thin strips of double-sided adhesive tape were placed on top of glass slides approximately 2 cm apart. 100 μl of ½-strength MS liquid growth medium containing 0.1% DMSO or 6 μM of ES20-1 was applied to the slide, and seedlings were mounted in the liquid medium. A 22×40 mm cover glass was placed on top of the double-sided tape for imaging. For longer term imaging during CESA velocity analysis, seedlings were mounted on a piece of 1-mm thick 0.6% Phytagel pad affixed to the glass slide to minimize compression and liquid evaporation.
To examine the cellular localization of YFP-AtCESA6 and YFP-AtCESA6; ManI-CFP, SDCM imaging was performed using a CSU-X1-A1 Yokogawa scanning unit mounted on an Olympus IX-83 microscope equipped with a 100×/1.4NA UPlanSApo oil objective (Olympus) and an Andor iXon Ultra 897BV EMCCD camera (Andor Technology). YFP and CFP fluorescence was excited with 515-nm and 445-nm laser lines and emission collected through 542/27-nm and 479/40-nm filters, respectively.
For fluorescence recovery after photobleaching (FRAP) experiments, images were collected using a Zeiss Observer Z.1 microscope, equipped with a Yokogawa CSU-X1 head and a 100×/1.46 NA PlanApo objective (Zeiss). For the PM-localized CESA6 FRAP, photobleaching was performed with a Vector scanner (Intelligent Imaging Innovations) with a 515-nm laser line at 100% power and 1 ms/scan. Timelapse images were collected at the PM with a 10-s interval for 64 frames, with photobleaching in a small region (44.2 μm^2) after the 4th frame, and recovery for total 10 min.
Image analysis was performed using ImageJ. For CESA particle density analyses, regions of interest (ROIs) without abundant Golgi signals were chosen using the Freehand selection tool. CESA particles were detected automatically on 8-bit images using the Find Maxima tool with the same noise threshold for all images. CESA particle density for each ROI was calculated by dividing the number of particles by the ROI area. To analyze CESA particle dynamics, 5-min time-lapse series with 5-s intervals were collected. Average intensity projections were generated to identify the trajectories of CSC particles. Image drift was corrected using the StackReg plugin (Thevenaz et al., 1998). Kymographs were generated, and the velocities of CESA particles were measured as the reciprocal of the slope of individual CESA particles in the kymographs. To quantify cortical vesicles, 1 μm z-series stack with 0.2 μm as the step size and 20-s time-lapses were collected. The focal plane at 0.4 μm below the PM was used for cortical SmaCC analysis. Small particles showing motility in time-lapse series were considered to be SmaCCs. For the FRAP assay of PM-localized CSCs, a smaller area (16 μm^2) within the bleached region was used for analyses. The CSC delivery events during the first 5 min of recovery were manually counted according to the criteria described previously (Li et al., Proc. Natl. Acad Sci. USA, 2016, 113, 11348-11353). […] The CSC delivery rate was calculated by dividing the number of delivery events by the measured area and time.

Cc1ccccc1C(=O)NNC(=S)NC(=O)c1ccccc1 [ES20-1]
interaction with CESA6c^P595S (GFP-CESA6c^P595S): interacts | reduction of CSC delivery rate to PM (FRAP) ([1]; 5 min recovery after photobleaching, vs DMSO): ~35% | CSC delivery rate to PM (FRAP) ([1]; 5 min recovery, mean±SE, n=10 cells): 1.41±0.19 particle/μm^2/h | abundance of cortical SmaCCs ([1]; 10 min, mean±SE, n=24 cells): 7.07±0.34 particle/100 μm^2 | abundance (density) of CSCs at the PM ([1]; 10 min, mean±SE, n=32 cells): 0.64±0.03 particle/μm^2 | decrease of abundance of CSCs at the PM ([1]; 10 min, vs DMSO): ~30% | increase of abundance of cortical SmaCCs ([1]; 10 min, vs DMSO): ~30% | velocity of CSC particles at the PM ([1]; 30 min, mean±SE, n=325): 0.152 ± 0.005 ×10⁻⁶ cm/s | decrease of velocity of CSC particles at the PM ([1]; 30 min, vs DMSO): ~35% | integrated fluorescence intensity of Golgi-localized YFP-AtCESA6 ([1]; 1 h, mean±SE, n=55): 8684.50±535.60 | integrated fluorescence intensity of ManI-CFP ([1]; 1 h, same cell): not affected | increase of integrated fluorescence intensity of Golgi-localized YFP-AtCESA6 ([1]; 1 h, vs DMSO): more than 25%
